Experimental data published in ChEMBL document CHEMBL4007391, “Tackling Fungal Resistance by Biofilm Inhibitors” (J Med Chem, 2017).
Converted amounts (≈) assume the structure as drawn.

Columns and labels:
[1] = Cytotoxicity against human HepG2 assessed as reduction in cell viability after 24 hrs by CellTiter-Glo luminescent assay; format: cell-based; conditions: HepG2 cells
Candida albicans [2] = assay: Antibiofilm activity against Candida albicans SC5314 after 24 hrs by XTT assay; format: functional; conditions: SC5314, 24 h
Candida albicans [3] = assay: Inhibition of filament formation of tet-NRG1 expressing Candida albicans after 2 to 24 hrs; format: functional
Candida albicans [4] = assay: Antibiofilm activity against Candida albicans SC5314 after 24 hrs in presence of miconazole by Cell-Titer Blue assay; format: functional
Candida albicans [5] = assay: Antibiofilm activity against Candida albicans CAF2-1 after 48 hrs by Alamar blue assay; format: functional; conditions: CAF2-1, 48 h
Candida albicans [6] = assay: Antibiofilm activity against fluconazole-resistant Candida albicans 29E clinical isolates after 48 hrs by Alamar blue assay; format: functional
Candida albicans [7] = assay: Antibiofilm activity against Candida albicans SC5314 after 24 hrs by Cell-Titer Blue assay; format: functional
Candida albicans [8] = assay: Antibiofilm activity against Candida albicans SC5314 after 48 hrs by Alamar blue assay; format: functional; conditions: SC5314, 48 h
Candida albicans [9] = assay: Antibiofilm activity against Candida albicans SC5314 clinical isolates after 24 hrs by XTT assay; format: functional
Candida albicans [10] = assay: Antibiofilm activity against Candida albicans DAY185 after 24 hrs by XTT assay; format: functional
Candida albicans [11] = assay: Antifungal activity against Candida albicans DAY185 by CLSI method; format: functional
Candida albicans [12] = assay: Disruption of biofilm of Candida albicans ATCC 90028 after 48 hrs in presence of fluconazole by XTT assay; format: functional
Candida albicans [13] = assay: Disruption of biofilm of Candida albicans ATCC 90028 after 48 hrs in presence of voriconazole by XTT assay; format: functional
Candida albicans [14] = assay: Inhibition of biofilm formation of Candida albicans ATCC 90028 after 48 hrs in presence of fluconazole by XTT assay; format: functional
Candida albicans [15] = assay: Inhibition of biofilm formation of Candida albicans ATCC 90028 after 48 hrs in presence of voriconazole by XTT assay; format: functional
Candida albicans [16] = assay: Antibiofilm activity against Candida albicans CAIF-100 after 24 hrs by Cell-Titer Blue assay; format: functional
Candida albicans [17] = assay: Antifungal activity against fluconazole-resistant Candida albicans by broth microdilution assay; format: functional
Candida albicans [18] = assay: Antifungal activity against fluconazole-susceptible Candida albicans by broth microdilution assay; format: functional
[19] = Toxicity in mouse; format: organism-based; conditions: in vivo

`Cc1c(CN2CCC3(CCCN(Cc4ccc(C(C)C)cc4)C3=O)C2)cnn1C` (stereo not given) showed a CC50 at 24 h [1] of 62.7 to 104 µM and an IC50 (Candida albicans [2]) of 3.15 µM.

In the case of `CCN(CC)CCN1c2ccccc2Sc2ccc3ccccc3c21`, the IC50 (Candida albicans [3]) is reported as 3.8 µM and the CC50 at 24 h [1] is reported as 50.8 µM.

With `Cc1ncc(CN2CCC3(CCCN(Cc4ccc(C(C)C)cc4)C3=O)C2)cn1` (stereo not given) the CC50 at 24 h [1] was 62.7 to 104 µM and the IC50 (Candida albicans [2]) was 2.7 µM.

In the case of `C[C@@H]1CC[C@H]2[C@@H](C)C(=O)O[C@@H]3O[C@@]4(C)CC[C@@H]1[C@]32OO4` [ARTEMISININ], the “fractional inhibitory concentration index (FICI)” value (Candida albicans [4]) is reported as 0.186.

For `Nc1cc(S(N)(=O)=O)ccc1SSc1ccc(S(N)(=O)=O)cc1N`, the CC50 at 24 h [1] was 106 µM and the IC50 (Candida albicans [2]) was 3.45 µM.

Compound `O=[N+]([O-])c1ccc(O)c2ncccc12` [NITROXOLINE] has an IC50 (Candida albicans [5]) of 1 to 5.8 µM, an IC50 (Candida albicans [6]) of 1 to 5.8 µM and an MBEC2 (Candida albicans [7]) of 3.1 µM. The IC50 (Candida albicans [8]) was 1 to 5.8 µM.

With `CCC(CO)N1C(C)=CC(=Cc2sc3ccccc3[n+]2Cc2ccccc2)C=C1C` (stereo not given) the IC50 (Candida albicans [5]) was 1.7 to 119 µM, the IC50 (Candida albicans [6]) was 1.7 to 119 µM and the IC50 (Candida albicans [8]) was 1.7 to 119 µM.

Compound `Oc1c(I)cc(Cl)c2cccnc12` [CLIOQUINOL] has an IC50 (Candida albicans [9]; Candida albicans, SC5314, 24 h) of 2.6 µM.

Compound THIMEROSAL has an IC50 (Candida albicans [9]) of 0.2 µM.

For `Cc1ccccc1OCc1n(CC(=O)OC2CC(C)CCC2C(C)C)c2ccccc2[n+]1C` (stereo not given), the IC50 (Candida albicans [5]) was 9.8 to 24.3 µM, the IC50 (Candida albicans [6]) was 9.8 to 24.3 µM and the IC50 (Candida albicans [8]) was 9.8 to 24.3 µM.

Compound `Cc1cc(OCCOCC[N+](C)(C)Cc2ccccc2)ccc1C(C)(C)CC(C)(C)C` has an IC50 (Candida albicans [9]; Candida albicans, SC5314, 24 h) of 8.9 µM.

For `Cc1cc(/C=C/c2ccc3cc(N(C)C)ccc3[n+]2C)c(C)n1-c1ccccc1.Cc1cc(/C=C/c2ccc3cc(N(C)C)ccc3[n+]2C)c(C)n1-c1ccccc1.O=C([O-])c1cc2ccccc2c(Cc2c(O)c(C(=O)[O-])cc3ccccc23)c1O` [PYRVINIUM PAMOATE], the MBEC2 (Candida albicans [7]) was 3.9 µM and the IC50 (Candida albicans [9]; Candida albicans, SC5314, 24 h) was 6.7 µM.

Work on `Oc1c(Cl)cc(Cl)c2cccnc12` [CHLOROXINE] yielded an IC50 (Candida albicans [5]) of 1.2 to 13.2 µM, an IC50 (Candida albicans [6]) of 1.2 to 13.2 µM and an IC50 (Candida albicans [9]; Candida albicans, SC5314, 24 h) of 2.7 µM. For the same compound, the IC50 (Candida albicans [8]) was 1.2 to 13.2 µM.

`CCN1/C(=C\c2ccc3ccccc3[n+]2CC)Sc2cc(C)ccc21` showed an IC50 (Candida albicans [5]) of 2.8 to 82.1 µM, an IC50 (Candida albicans [6]) of 2.8 to 82.1 µM and an IC50 (Candida albicans [8]) of 2.8 to 82.1 µM.

With `CCCCCCCCCC(=O)[C@H]1C(=O)N[C@@H](CC(C)C)C(=O)N[C@H](C)C(=O)N2CCC[C@H]2C(=O)N[C@@H](C(C)C)C(=O)N[C@H]2CS[C@H]1CNC2=O` the IC50 (Candida albicans [10]) was > 200 µM and the MIC (Candida albicans [11]) was > 200 µM.

In the case of `CCCCCCCCCC(=O)C1C(=O)N[C@@H](CC(C)C)C(=O)N[C@H](C)C(=O)N2CCC[C@H]2C(=O)N[C@@H](C(C)C)C(=O)N[C@@H](CC)C(=O)NCC1O` (stereo not given in full), the IC50 (Candida albicans [10]) is reported as 5.3 µM and the MIC (Candida albicans [11]) is reported as > 200 µM.

For `CCN(CC)CCCC(C)Nc1ccnc2cc(Cl)ccc12` (stereo not given) [CHLOROQUINE], the “fractional inhibitory concentration index (FICI)” value (Candida albicans [12]) was 0.156 - 0.25, the “fractional inhibitory concentration index (FICI)” value (Candida albicans [13]) was 0.156 - 0.25 and the “fractional inhibitory concentration index (FICI)” value (Candida albicans [14]) was 0.156 - 0.25. The “fractional inhibitory concentration index (FICI)” value (Candida albicans [15]) was 0.156 - 0.25.

`CC[C@@]1([C@@H]2O[C@@H]([C@H]3O[C@@](O)(CO)[C@H](C)C[C@@H]3C)C[C@@H]2C)CC[C@H]([C@]2(C)CCC3(C[C@H](O)[C@@H](C)[C@@H]([C@@H](C)[C@@H](OC)[C@H](C)C(=O)O)O3)O2)O1` (stereo not given in full) showed an IC50 (Candida albicans [9]; Candida albicans, SC5314, 24 h) of 6.4 µM.

Compound `O=C1c2cccc(O)c2C(=O)c2c(O)cccc21` [DANTHRON] has an MBIC50 (Candida albicans [16]) of 12 µM.

With `CC[C@H](C)C1NC(=O)[C@@H](CCCN)NC(=O)[C@@H](NC(=O)[C@@H](NC(=O)[C@@H](CCC(=O)O)NC(=O)[C@H](CC(C)C)NC(=O)[C@@H]2CSC([C@@H](N)[C@@H](C)CC)=N2)[C@@H](C)CC)CCCCNC(=O)[C@H](CC(N)=O)NC(=O)[C@@H](CC(=O)O)NC(=O)[C@H](Cc2c[nH]cn2)NC(=O)[C@@H](Cc2ccccc2)NC1=O` (stereo not given in full) the IC50 (Candida albicans [9]; Candida albicans, SC5314, 24 h) was 17 µM.

With `COc1ccc2cc1Oc1ccc(cc1)C[C@H]1c3cc(c(OC)cc3CCN1C)Oc1c(OC)c(OC)cc3c1[C@H](C2)N(C)CC3` [FANCHININ] the MIC80 (Candida albicans [17]) was 64 µg/mL (≈ 103 µM) and the MIC80 (Candida albicans [18]) was 64 µg/mL (≈ 103 µM).

Compound `NC1C2CC3CC(C2)CC1C3` (stereo not given) has an LD50 [19] of 250 mg/kg.

With `CO[C@H]1C[C@@H]2CC[C@@H](C)[C@@](O)(O2)C(=O)C(=O)N2CCCC[C@H]2C(=O)O[C@H]([C@H](C)C[C@@H]2CC[C@@H](O)[C@H](OC)C2)CC(=O)[C@H](C)/C=C(\C)[C@@H](O)[C@@H](OC)C(=O)[C@H](C)C[C@H](C)/C=C/C=C/C=C/1C` [SIROLIMUS] the IC50 (Candida albicans [3]) was 0.514 µM and the CC50 at 24 h [1] was 67.2 µM.

`CC[C@H](C)[C@H](N)C1=N[C@H](C(=O)N[C@@H](CC(C)C)C(=O)N[C@H](CCC(=O)O)C(=O)N[C@@H](C(=O)N[C@@H]2CCCCNC(=O)[C@H](CC(N)=O)NC(=O)[C@@H](CC(=O)O)NC(=O)[C@H](Cc3cnc[nH]3)NC(=O)[C@@H](Cc3ccccc3)NC(=O)[C@H]([C@@H](C)CC)NC(=O)[C@@H](CCCN)NC2=O)[C@@H](C)CC)CS1` showed a CC50 at 24 h [1] of 286 µM and an IC50 (Candida albicans [2]) of 2.13 µM.

With `C1CCC(C(CC2CCCCN2)C2CCCCC2)CC1.O=C(O)/C=C\C(=O)O` (stereo not given) [PERHEXILINE MALEATE] the MBIC50 (Candida albicans [16]) was 39 µM.
